Measured values reported in patent US20050054637A1, “Substituted piperazine cyclohexane carboxilic acid amides and the use thereof” (priority 2001, published 2005).

How the values were obtained:
mongrel dogs = experiment: In vivo test model for adenosine-uptake inhibitors: reactive hyperaemia after coronary occlusion in anaesthetized dogs; set-up: species or system dog; conditions: 10 μg/kg i.v., reactive hyperaemia after four-minute occlusion
Method: 2. In vivo Test Model for Testing Adenosine-Uptake Inhibitors
Adult mongrel dogs (body weight 20-30 kg) are initially anaesthetized using a combination of trapanal 500 mg and alloferin 55 mg. Anaesthesia is maintained by infusion of a mixture of fentanyl 0.072 mg/kg, alloferin 0.02 mg/kg and dihydrobenzpyridyl 0.25 mg/kg×min. The animals are intubated and ventilated with a mixture of O2/N2O (ratio 1:5) using a Dräger ventilation pump at 16 breaths per min and a volume of 18-24 ml/kg. The body temperature is maintained at 38° C.±0.1° C. Arterial blood pressure is measured via a catheter in the femoral artery. A thoractomy is carried out on the left side at the fifth intercostal space. The lung is pushed back and fixed and a cut is made in the pericardium. A proximal section of the LAD distally to the first diagonal branch is exposed and a calibrated electromagnetic flow sensor (from Scalar) is placed around the vessel and attached to a flow meter (from Scalar, model MDL 1401). Distally to the flow sensor, a mechanical occluder is attached such that there are no branches in between flow sensor and occluder.
Using a catheter in the femoral vein, blood samples are taken and substances (10 μg/kg i.v.) are administered. A peripheral ECG is recorded using needles which are fixed subcutaneously. A microtip pressure manometer (from Millar, model PC-350) is pushed through the left atrium to measure the pressure in the left ventricle. Measurement of the heart frequency is triggered by the R wave of the ECG. During the entire experiment, the haemodynamic parameters and the coronary flow are recorded using a multi-event recorder.
A four-minute occlusion causes reactive hyperaemia. The difference between the coronary flow under control conditions and the maximum flow during the reactive hyperaemia is measured. The time which is required to achieve half of this maximum flow in the drop is a suitable parameter to assess the reaction hyperaemia.
After a stabilization period of one hour, the experiment is started with a four-minute occlusion. Thirty minutes later, the substance is administered (i.v.) which is, after two minutes, followed by re-occlusion. The reactive hyperaemia after verum and placebo is compared.

[1] = tested on: adenosine uptake in rabbit erythrocytes; experiment: Inhibition of the adenosine uptake in rabbit erythrocytes (functional adenosine-uptake test); type: cell-based; conditions: Oryctolagus cuniculus, 0.25 h; rabbit erythrocyte preparation, 30° C., adenosine remaining 15 min after addition of adenosine
Method: 1. Inhibition of the Adenosine Uptake in Rabbit Erythrocytes by the Compounds According to the Invention
The capability of substnaces to influence the adenosine-uptake system is investigated by determining the inhibitory effect of the substances on functional adenosine uptake.
For the functional adenosine-uptake test, an erythrocyte preparation from rabbit blood is used. The blood is drawn intravenously using citrate (3 ml Monovette 9NC from Sarstedt) as anticoagulant. The blood is centrifuged at 3000 g for 5 min and the erythrocytes are suspended in 10 mM 3-(N-morpholino)propanesulphonic acid buffer (MOPS)/0.9% aqueous sodium chloride solution pH 7.4. The suspension is diluted to one hundredth of the original blood volume. In each case, 990 μl of the suspension are admixed with 10 μl of a suitable concentration of the substance to be examined, and the mixture is incubated at 30° C. for 5 min. 5 μl of a 4 mM adenosine solution are then added, and the mixture is incubated at 30° C. for another 15 min. The samples are then centrifuged at 3000 g for 5 min and in each case 700 μl of the supernatant are mixed with 28 μl of 70% strength HClO4, allowed to stand in an ice bath for 30 min and centrifuged at 16 000 g for 3 min, and 350 μl of the sample are neutralized using 30 μl of 5 N NaOH. 50 μl of the sample are applied to a column (Waters Symmetry C18 5 μm, 3.9×150 mm). A Spherisorb ODS II 5 μm, 4.6×10 mm column is used as precolumn The mobile phase used is a gradient of 50 mM KH2PO4/5 mM tributylamine pH 7 (mobile phase A) and a mixture of mobile phase A/methanol 1:1 (mobile phase B). The gradient is from 10% to 40% B, at a flow rate of 0.5 ml/min. The adenosine which is present is quantified by its absorption at 260 nm, as are the hypoxanthine and inosine formed.
Table 1 below lists the IC50 values obtained using this test: […]

Row | Structure (SMILES) | IC50 [1] [nM] | Increase of coronary blood flow in % (mongrel dogs) [%]
1 | NC(=O)[C@@H](NC(=O)[C@@H]1CCCC[C@H]1N1CCN(C(=O)c2ccc(F)cc2F)CC1)c1ccccc1 [Example 16, (1R,2R)-N-[(1S)-2-Amino-2-oxo-1-phenylethyl]-2-[4-(2,4-difluorobenzoyl)-1-piperazinyl)cyclohexanecarboxamide] | 30 | 326
2 | NC(=O)[C@@H](NC(=O)[C@@H]1CCCC[C@H]1N1CCN(C(=O)c2ccc3c(c2)OCO3)CC1)c1ccccc1 [Example 66] | 20 | –
3 | NC(=O)[C@@H](NC(=O)[C@@H]1CCCC[C@H]1N1CCN(C(=O)c2n[nH]c3ccccc23)CC1)c1ccccc1 [Example 3, (1R,2R)-N-[(1S)-2-Amino-2-oxo-1-phenylethyl]-2-[4-(1H-indazol-3-ylcarbonyl)-1-piperazinyl]cyclohexanecarboxamide] | 30 | –
4 | NC(=O)[C@@H](NC(=O)[C@@H]1CCCC[C@H]1N1CCN(C(=O)OC2CCCC2)CC1)c1ccccc1 [Example 21] | 15 | –
5 | NC(=O)[C@@H](NC(=O)[C@@H]1CCCC[C@H]1N1CCN(C(=O)c2ccc[nH]2)CC1)c1ccccc1 [Example 18, (1R,2R)-N-[(1S)-2-Amino-2-oxo-1-phenylethyl]-2-{4-[(2-pyrrolyl)carbonyl]-1-piperazinyl}cyclohexanecarboxamide] | 30 | 347
6 | Cc1ccc(C(=O)N2CCN([C@@H]3CCCC[C@H]3C(=O)N[C@H](C(N)=O)c3ccccc3)CC2)s1 [Example 17, (1R,2R)-N-[(1S)-2-Amino-2-oxo-1-phenylethyl]-2-{4-[(5-methyl-2-thienyl)-carbonyl]-1-piperazinyl}cyclohexanecaiboxamide] | 20 | 250
7 | NC(=O)[C@@H](NC(=O)[C@@H]1CCCC[C@H]1N1CCN(C(=O)c2ccccc2F)CC1)c1ccccc1 [Example 27] | 20 | –

Continued by falling IC50 [1], values first:

Row | IC50 [1] [nM] | Structure (SMILES) | Increase of coronary blood flow in % (mongrel dogs) [%]
8 | 80 | NC(=O)[C@@H](NC(=O)[C@@H]1CCCC[C@H]1N1CCN(Cc2ccccc2)CC1)c1ccc(F)cc1 [Example 8, (1R,2R)-N-[(1S)-2-Amino-1-(4-fluorophenyl)-2-oxoethyl]-2-(4-benzyl-1-piperazinyl)cyclohexanecarboxamide] | –
9 | 30 | NC(=O)[C@@H](NC(=O)[C@@H]1CCCC[C@H]1N1CCN(C(=O)c2ccccc2)CC1)c1ccc(F)cc1 [Example 2, (1R,2R)-N-[(1S)-2-Amino-2-oxo-1-(4-fluorophenyl)ethyl]-2-(4-benzoyl-1-piperazin-yl)cyclohexanecarboxamide] | –
10 | 30 | NC(=O)[C@@H](NC(=O)[C@@H]1CCCC[C@H]1N1CCN(C(=O)c2ccccc2)CC1)c1ccccc1 [Example 1, (1R,2R)-N-[(1S)-2-Amino-2-oxo-1-phenylethyl]-2-(4-benzoyl-1-piperazinyl)cyclo-hexanecarboxamide] | 258
